The values below come from patent publication US12583829B2, “Salt of benzothiazole compound, and crystal form and use thereof” (Sichuan Kelun Pharmaceutical Research Institute Co., Ltd., priority 2020, dated 2026).

Data set [1] is described as follows: Solubility test in pure water, room temperature, HPLC. It is filed as physicochemical. To be noted: thermodynamic from solid, excess sample, shaken at room temperature for 15 h, filtered.
Method: The samples were taken into pure water, and an excess amount of samples were added, which were then shaked at room temperature for 15 h, and filtered, and detected by HPLC. HPLC test conditions: mobile phase: sodium octanesulfonate-potassium dihydrogen phosphate buffer solution (5.0 g of sodium octanesulfonate and 9.1 g of potassium dihydrogen phosphate were taken, and added into 1000 ml of water for dissolution, and the pH was adjusted to 3.0 with phosphoric acid)-acetonitrile (72:28); The detection wavelength was 264 nm; The flow rate was 1.5 ml per minute; The column temperature was 40° C.; Injection volume: 10 μl; Chromatographic column: octadecyl silane bonded silica gel as filler (CAPCELL PAK MG II C18, 4.6 mm×250 mm, 5 μm).
For data set [2] the following is noted: rats, FDA data for Mirapex ER (pramipexole dihydrochloride), NDA 22-421; cited from earlier work.

A word on the solubility: it is how much of the substance goes into solution per volume. Low values mean a poorly soluble substance, high ones a readily soluble substance. For orientation: Tmax means the time from dosing to the highest level. `CCCN[C@H]1CCc2nc(N)sc2C1` [Compound of formula I, (S)-2-amino-4,5,6,7-tetrahydro-6-propylamine-benzothiazole] yielded a solubility at 15 h in data set [1] of 140 µg/mL. Moreover, in data set [2], the T1/2 is 3.18 h and the Tmax was 30 min.
